{"source": "paper PMC4104029", "about": "“Mechanism of Action of Compound-13: An α1-Selective Small Molecule Activator of AMPK” (Chemistry & Biology, 2014)", "test_system": "AMPK signaling in mouse primary hepatocytes", "experiment": "AMPK signaling in primary hepatocytes, western blotting", "type": "cell-based", "protocol": "Figure 4 The C2 Prodrug, C13, Potently Activates AMPK in Mouse Primary Hepatocytes (A) Isolated mouse hepatocytes were incubated with vehicle or the indicated concentrations of C13 for 1 hr. AICAR (0.5 mM) was included as a positive control. Cell lysates were analyzed using western blotting with the indicated antibodies. (B) AMPKα1 or AMPKα2 complexes were immunoprecipitated from hepatocyte extracts prepared as described in (A) and assayed for kinase activity using 0.2 mM AMARA and 0.1 mM ATP. Results are expressed as the mean Pi incorporated in picomoles per minute-milligram ± SD. (C) Hepatocytes were stimulated with 30 μM C13 for the indicated times prior to harvesting, with AICAR (0.5 mM, 1 hr) as positive control. Lysates were analyzed using western blotting with the indicated antibodies. (D) Mouse hepatocytes were treated with the indicated compounds for 1 hr, and adenine nucleotide ratios were determined using capillary electrophoresis of perchloric acid extracts. (E) Mouse hepatocytes were preincubated with 30 μM STO-609 for 30 min prior to stimulation with 30 μM C13 for 1 hr or with 1 μM ionomycin for 30 min. Lysates were analyzed using western blotting with the indicated antibodies. (F) Wild-type (LKB1^+/+) or LKB1-null (LKB1^−/−) mouse embryonic fibroblasts were incubated with the indicated concentrations of C13 for 1 hr. AICAR (2 mM) was included as a positive control. Lysates were analyzed using western blotting with the indicated antibodies. Results are representative of three independent experiments. […]\nIsolation of primary hepatocytes. Hepatocytes were isolated from fasted mice by collagenase digestion (Berry and Friend, 1969). Cells were seeded in M199 containing 100 U/ml penicillin G, 100 µg/ml streptomycin, 0.1 % (w/v) BSA, 10 % (v/v) FBS, 10 nM insulin, 200 nM triiodothyronine and 100 nM dexamethasone. Post attachment (3-4 h), cells were cultured overnight in M199 supplemented with antibiotics and 100 nM dexamethasone and used for experiments the following morning.\nWestern blotting. Cells were stimulated as indicated, rinsed with ice-cold PBS and lysed with 50 mM tris pH 7.5, 1 mM EDTA, 1 mM EGTA, 0.27 M sucrose, 1 % (w/v) Triton X-100, 20 mM glycerol-2-phosphate, 50 mM NaF, 5 mM Na4P2O7, 1 mM Na3VO4, 1 mM DTT, 0.5 mM PMSF, 1 mM benzamidine and 1 µM microcystin-LR. Lysates were clarified at 3000 g for 5 min at 4 °C and normalised using Bradford reagent and BSA as standard. Lysates (20 µg) were denatured in Laemlli buffer, separated on 7.5 % tris-glycine gels and transferred to PVDF in Towbin buffer. Membranes were blocked in 5 % (w/v) milk for 1 h at RT and incubated overnight in the indicated primary antibodies at 4 °C. Membranes were developed using HRP-conjugated antibodies and ECL reagent.\nNucleotide measurements. Cultured hepatocytes were incubated with the indicated compounds and washed with ice-cold 0.9 % (w/v) saline before extraction in 5 % perchloric acid. Precipitated material was removed by centrifugation (13,000 RPM, 3 min) and supernatant neutralised with 1:1 trioctylamine:Freon-113 (Khym, 1975). Nucleotides were separated and quantified by capillary electrophoresis using a Beckman P/ACE instrument as previously described (Hawley, et al., 2010).", "data": [{"smiles": "CC(C)C(=O)OCOP(=O)(OCOC(=O)C(C)C)c1ccc(C2=NOC(=O)C2)o1", "note": "[Compound C13]", "values": [{"measurement": "time course of Thr172 phosphorylation", "setting": "30 μM", "value": "continually increased up to 2 hr"}, {"measurement": "time to maximal phosphorylation of downstream targets (ACC, Raptor, and ULK1)", "setting": "30 μM", "value": "45 to 60", "unit": "min"}, {"measurement": "insulin-stimulated mTORC1 activation (phosphorylation of p70S6K and 4EBP1)", "setting": "30 µM, 10 mU/ml insulin, 60 min", "value": "suppressed"}, {"measurement": "concentration above which Raptor and ULK1 were significantly phosphorylated", "setting": "1 hr", "value": "1 to 3", "unit": "µM"}, {"measurement": "concentration above which phosphorylation of ACC was evident", "setting": "1 hr", "value": "0.03 to 0.1", "unit": "µM"}, {"measurement": "concentration at which ACC phosphorylation appeared saturated", "setting": "1 hr", "value": "1 to 3", "unit": "µM"}, {"measurement": "concentration at which Thr389 p70S6K1 phosphorylation was suppressed", "setting": "1 hr", "value": "above 1 μM"}, {"measurement": "lowest concentration with elevation of Thr172 phosphorylation", "setting": "1 hr", "value": 10, "unit": "µM"}]}]}
